The source of these data is US20100197642A1, “SLOW RELEASE MISOPROSTOL FOR OBSTETRIC AND/OR GYNAECOLOGICAL APPLICATIONS” (priority 2007, published 2010).

For data set [1] the following is noted: cited from earlier work.
The nature of data set [2]: Pharmacokinetic study of misoprostol acid (MPA) plasma levels after SR oral, sublingual or vaginal misoprostol. Format: in vivo, women. The conditions noted are these: 400 μg.
Method: A study was performed with healthy women ≧18 years with a viable intrauterine pregnancy of up to 12 weeks (47-83 days) of gestation who had requested termination of pregnancy by vacuum aspiration.
After giving their informed consent, eligible women were allocated randomly to the three treatment groups using computer generated random tables and numbered, sealed, opaque envelopes opened consecutively. […] The SR misoprostol tablets were swallowed with a small amount of water. Women allocated to vaginal misoprostol treatment inserted the tablets intravaginally themselves.
The women were admitted to hospital in the morning after fasting overnight.
The blood samples were immediately cooled in a refrigerator at +6° C. for 30-60 minutes and thereafter centrifuged in a cooled centrifuge for 10 minutes at 3000 rpm. The plasma was then drawn from the blood samples and stored at below −20° C. for further analyses. […]
AUC was calculated according to the trapezoidal method, by dividing the area under the curve into trapezium segments according to the time intervals of blood sampling. […] The AUC720 was calculated by summation of the trapezium segments. Pulse, blood pressure and temperature were measured repeatedly and side-effects such as nausea, abdominal pain, skin rash or diarrhoea were recorded, as well as any analgesics given. […]

The structures appear in SMILES notation.

In the case of `CCCCC(C)(O)C/C=C/[C@H]1[C@H](O)CC(=O)[C@@H]1CCCCCCC(=O)OC` (mixture of isomers) [misoprostol, (±) methyl 7-[3-(α-hydroxy-2-β-(4(RS)-4-hydroxy-4-methyl-trans-1-octen-1-yl)-oxycyclopent-1α-yl]heptanoate], the “time at which plasma misoprostol level peaks” value in data set [1] (400 μg oral misoprostol) is reported as “about 30 minutes”. Also, in data set [1] (vaginal administration), the “time after administration with detectable levels of MPA remaining” value was 6 h and the “time to maximum plasma level” value is 70 to 80 min. Further, in data set [2] (sublingual group), the “cumulative AUC of MPA over time (FIG. 2)” value is given as “did not continue to rise after 6 hours”. Moreover, the “cumulative AUC of MPA over time (FIG. 2)” value in data set [2] (vaginal group) is listed as “did not continue to rise after 6 hours”.
